Measurements: ChEMBL document CHEMBL3399940, “Synthesis and antimalarial evaluation of prodrugs of novel fosmidomycin analogues” (Bioorg Med Chem Lett, 2015)

Key:
[1] = test system: Plasmodium falciparum; test: Antimalarial activity against chloroquine and mefloquine-resistant Plasmodium falciparum Dd2 after 48 hrs by SYBR Green I assay; format: functional
[2] = Cytotoxicity against human HepG2A16 cells after 24 hrs by MTT assay; format: cell-based; conditions: read-out: LD50
[3] = Plasmodium falciparum, Dd2, 48 h, read-out: IC50

| SMILES | IC50 [1, 3] [nM] | CC50 at 24 h [2] [nM] | IC50 [1] |
| --- | --- | --- | --- |
| CC(=O)N(O)CCCP(=O)(O)O | 893 | – | – |
| CC(=O)N(O)CCCP(=O)(OCOC(=O)C(C)(C)C)OCOC(=O)C(C)(C)C | 272 | – | – |
| CC(C)(C)C(=O)OCOP(=O)(OCOC(=O)C(C)(C)C)C1CCN(O)C(=O)C1 (centres undefined) | 27.4 | 25600 | – |
| CC(C)(C)C(=O)OCOP(=O)(OCOC(=O)C(C)(C)C)C1CCCN(O)C(=O)C1 (centres undefined) | 2240 | 20100 | – |
| CCOP(=O)(OCC)C1CCN(OCc2ccccc2)C(=O)C1 (centres undefined) | – | 25600 | Not Active |
| O[C@@H](c1cc(C(F)(F)F)nc2c(C(F)(F)F)cccc12)[C@H]1CCCCN1 [(S,R)-MEFLOQUINE] | 92 | – | – |
